Literature values as cited in EP2061448B1, “SUSTAINED RELEASE FORMULATION OF NALTREXONE” (Nalpropion Pharmaceuticals, Inc., priority 2006, dated 2007).
Read-outs that look alike come from different tables or passages of the source.

What was measured:
[1] = oral administration, immediate release form
[2] = initial 25 mg dose followed by 50 mg daily for 10 weeks
[3] = test system: pharmacologic effects of 25 mg of intravenously administered heroin

Molecule | Tmax [1] | Moderate to severe nausea, patients [2] [%] | period of block of the pharmacologic effects of heroin ([3]; 50 mg of naltrexone hydrochloride, 25 mg of intravenously administered heroin) [hours] | duration of blockade ([3]; doubling the dose of naltrexone hydrochloride) [h] | duration of blockade ([3]; tripling the dose of naltrexone hydrochloride)
O=C1CC[C@@]2(O)[C@H]3Cc4ccc(O)c5c4[C@@]2(CCN3CC2CC2)[C@H]1O5 [naltrexone, 17-(cyclopropylmethyl)-4,5α-epoxy-3,14-dihydroxymorphinan-6-one] | approximately 1 hour | 15 | – | – | –
naltrexone hydrochloride | – | – | ≤ 24 | 48 | about 72 hours
